In the experiment the target is T1, GST-SNCG (Homo sapiens, UniProt O76070).
T1 construct: The SNCG coding region was amplified from the human cDNA clone; made in house; host or cells: Escherichia coli BL21 (DE3)
Nature of the experiment: Surface plasmon resonance, immobilized ANK peptide with GST-SNCG analyte. As to conditions: global fit, two-phase reaction (conformation change) model, 25° C. In kind it is binding. As for the experimental part: Kinetics of the SNCG-ANK interaction were determined. […] Sensograms were deconvoluted globally, using a simultaneous fit for both association (ka, M^−1s^−1) and dissociation (kd, s^−1).
The binding interaction between the ANK peptide and GST-SNCG was examined in real time using a BIACORE 3000 biosensor system (Biacore Inc., NJ). Because of the relatively large amount required in this experiment, GST-SNCG, which expresses at least 2 times better than SNCG, was used. […] The changes in the refractive index at the sensor chip surface with respect to time are scaled in resonance units (RU). For proteins, every 1000 RU corresponds to a surface mass change of ˜1 ng/mm^2. All experiments were performed at 25° C. using research grade carboxymethylated dextran matrix (CM5) sensor chips (Biacore Inc.). […] Prior to all analyses the GST-SNCG and ANK peptide preparations were dialyzed against the running buffer to minimize bulk effects. […]
In all cases the analyte binding measurements were performed using running buffer 2 (running buffer 1 plus 0.1% P20 surfactant). […] Data was analyzed using BIAevaluation 3.1 software (Biacore Inc.). The data was analyzed globally, using a simultaneous fit for both association (ka, M^−1s^−1) and dissociation (kd, s^−1). The KD (M) value was calculated as kd/ka.

SMILES strings stand for the structures. Where a SMILES comes first, the peptide text is derived from it.

T1 sequence (O76070 whole entry): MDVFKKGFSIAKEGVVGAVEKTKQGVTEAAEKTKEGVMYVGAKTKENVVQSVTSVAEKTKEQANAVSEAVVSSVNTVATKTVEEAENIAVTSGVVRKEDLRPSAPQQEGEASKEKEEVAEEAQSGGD

For the compound `CC[C@H](C)[C@H](NC(=O)[C@H](CS)NC(=O)CNC(=O)[C@H](CC(C)C)NC(=O)[C@H](Cc1c[nH]cn1)NC(=O)CNC(=O)[C@H](Cc1c[nH]cn1)NC(=O)[C@H](CCC(N)=O)NC(=O)[C@H](CO)NC(=O)[C@H](C)NC(=O)[C@@H](NC(=O)[C@H](Cc1c[nH]cn1)NC(=O)[C@H](CC(C)C)NC(=O)[C@H](C)NC(=O)[C@H](CO)NC(=O)[C@H](CC(N)=O)NC(=O)CNC(=O)[C@H](CCCCN)NC(C)=O)C(C)C)C(=O)N[C@@H](CCC(N)=O)C(=O)N[C@H](C(=O)N[C@@H](CC(C)C)C(=O)N[C@H](C(=O)N[C@@H](CCCNC(=N)N)C(=O)N[C@@H](Cc1ccc(O)cc1)C(=O)NCC(=O)N[C@@H](C)C(=O)N[C@@H](CC(N)=O)C(=O)N[C@H](C(=O)N[C@H](C(=O)N[C@@H](CCSC)C(=O)N[C@@H](CCC(N)=O)C(=O)N[C@@H](CC(N)=O)C(=O)N[C@@H](Cc1c[nH]cn1)C(=O)NCC(N)=O)[C@@H](C)O)C(C)C)C(C)C)[C@@H](C)O` [ANK peptide] (Ac-KGNSALHVASQHGHLGCIQTLVRYGANVTMQNHG-NH2), the kd1 is 0.014 s⁻¹ and the kd2 was found to be 0.000802 s⁻¹.
